According to US20220119354A1, “DIAMINO-SUBSTITUTED PYRIDINES AND PYRIMIDINES AS HERBICIDES” (FMC Corporation, priority 2019, published 2022):

Assays:
Assay type in all cases: in vivo
kochia (Kochia scoparia) [1] = assay: Test A postemergence, kochia; conditions: 0 to 100 scale
Outline: (§1)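 Visual injury scored against untreated controls about 10 d after treatment, scale 0 = no effect to 100 = complete control. Compounds, formulated with surfactant in a non-phytotoxic solvent, went on as directed soil spray preemergence or onto 2–10 cm, one- to two-leaf plants postemergence; loam–sand soil, greenhouse.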

[2] = test system: barnyardgrass (Echinochloa crus-galli); assay: Test A postemergence, barnyardgrass; conditions: 0 to 100 scale
Outline: as §1

[3] = test system: pigweed (Amaranthus retroflexus); assay: Test A postemergence, pigweed; conditions: 0 to 100 scale
Outline: as §1

[4] = test system: ducksalad (Heteranthera limosa); assay: Test B flooded paddy test, ducksalad; conditions: Flood, 250 g ai/ha, applied to paddy water, 2-leaf stage, visual evaluation after 13 to 15 d
Outline: (§2)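 Growth to two leaves preceded treatment. Flooding to 3 cm above soil surface, then water-applied compound; depth kept constant. Scored visually relative to controls after 13–15 d greenhouse; 100 means full control.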

[5] = test system: ryegrass, Italian (Lolium multiflorum); assay: Test A preemergence, Italian ryegrass; conditions: 0 to 100 scale; for Ryegrass, Italian plant response rating: 0 is no effect, 100 is complete control
Outline: as §1

[6] = test system: barnyardgrass (Echinochloa crus-galli); assay: Test B flooded paddy test, barnyardgrass; conditions: Flood, 250 g ai/ha, applied to paddy water, 2-leaf stage, visual evaluation after 13 to 15 d
Outline: as §2

[7] = test system: foxtail, giant (Setaria faberii); assay: Test A postemergence, giant foxtail; conditions: 0 to 100 scale
Outline: as §1

[8] = test system: galium (catchweed bedstraw, Galium aparine); assay: Test A postemergence, galium; conditions: 0 to 100 scale
Outline: as §1

[9] = test system: sedge, umbrella (small-flower umbrella sedge, Cyperus difformis); assay: Test B flooded paddy test, umbrella sedge; conditions: Flood, 250 g ai/ha, applied to paddy water, 2-leaf stage, visual evaluation after 13 to 15 d
Outline: as §2

[10] = test system: pigweed (Amaranthus retroflexus); assay: Test A preemergence, pigweed; conditions: 0 to 100 scale; for Pigweed plant response rating: 0 is no effect, 100 is complete control
Outline: as §1

rice (Oryza sativa) = assay: Test B flooded paddy test, rice; conditions: Flood, 250 g ai/ha, applied to paddy water, 2-leaf stage, visual evaluation after 13 to 15 d
Outline: as §2

[11] = test system: wheat (Triticum aestivum); assay: Test A postemergence, wheat; conditions: 0 to 100 scale
Outline: as §1

[12] = test system: ryegrass, Italian (Lolium multiflorum); assay: Test A postemergence, Italian ryegrass; conditions: 0 to 100 scale
Outline: as §1

corn (Zea mays) = assay: Test A postemergence, corn; conditions: 0 to 100 scale
Outline: as §1

[13] = test system: barnyardgrass (Echinochloa crus-galli); assay: Test A preemergence, barnyardgrass; conditions: 0 to 100 scale; for Barnyardgrass plant response rating: 0 is no effect, 100 is complete control
Outline: as §1

[14] = test system: foxtail, giant (Setaria faberii); assay: Test A preemergence, giant foxtail; conditions: 0 to 100 scale; for Foxtail, Giant plant response rating: 0 is no effect, 100 is complete control
Outline: as §1

[15] = test system: ragweed (common ragweed, Ambrosia elatior); assay: Test A preemergence, ragweed; conditions: 0 to 100 scale; for Ragweed plant response rating: 0 is no effect, 100 is complete control
Outline: as §1

[16] = test system: ragweed (common ragweed, Ambrosia elatior); assay: Test A postemergence, ragweed; conditions: 0 to 100 scale
Outline: as §1

kochia (Kochia scoparia) [17] = assay: Test A preemergence, kochia; conditions: 0 to 100 scale; for Kochia plant response rating: 0 is no effect, 100 is complete control
Outline: as §1

[18] = test system: blackgrass (Alopecurus myosuroides); assay: Test A postemergence, blackgrass; conditions: 0 to 100 scale
Outline: as §1

[19] = 125 g ai/ha, 0 no effect, 100 complete control
[20] = 500 g ai/ha, 0 no effect, 100 complete control

Cc1ccc2oc([C@@H](C)Nc3ncc(C(F)(F)F)c(N)n3)cc2c1 [Compound 10]
40: Plant response rating, Foxtail, Giant ([7]; 500 g ai/ha)
50: Plant response rating, Galium ([8]; 125 g ai/ha) | Plant response rating, Ragweed ([15]; 500 g ai/ha)
0: Plant response rating, Kochia (kochia (Kochia scoparia) [1]; 125 g ai/ha) | Plant response rating, Kochia (kochia (Kochia scoparia) [1]; 500 g ai/ha) | Plant response rating, Barnyardgrass ([2]; 125 g ai/ha) | Plant response rating, Ducksalad (0 to 100 scale, 0 is no effect, 100 is complete control) [4] | Plant response rating, Ryegrass, Italian ([5]; 125 g ai/ha) | Plant response rating, Barnyardgrass (0 to 100 scale, 0 is no effect, 100 is complete control) [6] | Plant response rating, Foxtail, Giant ([7]; 125 g ai/ha) | Plant response rating, Sedge, Umbrella (0 to 100 scale, 0 is no effect, 100 is complete control) [9] | Plant response rating, Pigweed ([10]; 125 g ai/ha) | Plant response rating, Rice (0 to 100 scale, 0 is no effect, 100 is complete control) (rice (Oryza sativa)) | Plant response rating, Wheat ([11]; 125 g ai/ha) | Plant response rating, Wheat ([11]; 500 g ai/ha) | Plant response rating, Ryegrass, Italian ([12]; 125 g ai/ha) | Plant response rating, Ryegrass, Italian ([12]; 500 g ai/ha) | Plant response rating, Corn (corn (Zea mays); 125 g ai/ha) | Plant response rating, Corn (corn (Zea mays); 500 g ai/ha) | Plant response rating, Foxtail, Giant ([14]; 125 g ai/ha) | Plant response rating, Ragweed ([15]; 125 g ai/ha) | Plant response rating, Kochia (kochia (Kochia scoparia) [17]; 125 g ai/ha) | Plant response rating, Kochia (kochia (Kochia scoparia) [17]; 500 g ai/ha) | Plant response rating, Blackgrass ([18]; 125 g ai/ha)
20: Plant response rating, Barnyardgrass ([2]; 500 g ai/ha) | Plant response rating, Ryegrass, Italian ([5]; 500 g ai/ha) | Plant response rating, Barnyardgrass ([13]; 125 g ai/ha) | Plant response rating, Ragweed ([16]; 125 g ai/ha) | Plant response rating, Blackgrass ([18]; 500 g ai/ha)
90: Plant response rating, Pigweed ([3]; 500 g ai/ha)
70: Plant response rating, Galium ([8]; 500 g ai/ha)
80: Plant response rating, Pigweed ([3]; 125 g ai/ha) | Plant response rating, Ragweed ([16]; 500 g ai/ha)
30: Plant response rating, Barnyardgrass ([13]; 500 g ai/ha)
60: Plant response rating, Pigweed ([10]; 500 g ai/ha) | Plant response rating, Foxtail, Giant ([14]; 500 g ai/ha)

C[C@H](Nc1nc(N)c(C(F)(F)F)c(C(F)(F)F)n1)C1Cc2ccccc2C1 [Compound 68]
0: Plant response rating, Barnyardgrass [2, 19] | Plant response rating, Barnyardgrass [2, 20] | Plant response rating, Pigweed [3, 19] | Plant response rating, Pigweed [3, 20] | Plant response rating, Ducksalad (0 to 100 scale, 0 is no effect, 100 is complete control) [4] | Ryegrass, Italian plant response rating ([5]; 125 g ai/ha) | Ryegrass, Italian plant response rating ([5]; 500 g ai/ha) | Plant response rating, Barnyardgrass (0 to 100 scale, 0 is no effect, 100 is complete control) [6] | Plant response rating, Foxtail, Giant [7, 19] | Plant response rating, Foxtail, Giant [7, 20] | Plant response rating, Galium [8, 19] | Plant response rating, Galium [8, 20] | Plant response rating, Sedge, Umbrella (0 to 100 scale, 0 is no effect, 100 is complete control) [9] | Pigweed plant response rating ([10]; 125 g ai/ha) | Pigweed plant response rating ([10]; 500 g ai/ha) | Plant response rating, Rice (0 to 100 scale, 0 is no effect, 100 is complete control) (rice (Oryza sativa)) | Plant response rating, Wheat [11, 19] | Plant response rating, Wheat [11, 20] | Plant response rating, Ryegrass, Italian [12, 19] | Plant response rating, Ryegrass, Italian [12, 20] | Plant response rating, Corn (corn (Zea mays); [20]) | Barnyardgrass plant response rating ([13]; 125 g ai/ha) | Barnyardgrass plant response rating ([13]; 500 g ai/ha) | Foxtail, Giant plant response rating ([14]; 125 g ai/ha) | Foxtail, Giant plant response rating ([14]; 500 g ai/ha) | Ragweed plant response rating ([15]; 125 g ai/ha) | Ragweed plant response rating ([15]; 500 g ai/ha) | Kochia plant response rating (kochia (Kochia scoparia) [17]; 125 g ai/ha) | Kochia plant response rating (kochia (Kochia scoparia) [17]; 500 g ai/ha) | Plant response rating, Blackgrass [18, 19] | Plant response rating, Blackgrass [18, 20]
40: Plant response rating, Kochia (kochia (Kochia scoparia) [1]; [20]) | Plant response rating, Ragweed [16, 19]
50: Plant response rating, Ragweed [16, 20]
20: Plant response rating, Kochia (kochia (Kochia scoparia) [1]; [19]) | Plant response rating, Corn (corn (Zea mays); [19])

C[C@@H](Nc1ncc(C(F)(F)F)c(N)n1)c1cc2ccc(F)cc2o1 [Compound 8, N2-[(1R)-1-(6-fluoro-2-benzofuranyl)ethyl]-5-(trifluoromethyl)-2,4-pyrimidinediamine]
60%: pest or weed control at 500 g/ha ([18]; Alopecurus myosuroides, post-emergence, 240 h, 500 g ai/ha, read-out: Plant response rating, Blackgrass)
0%: pest or weed control at 250 g/ha ([6]; Echinochloa crus-galli, 360 h, read-out: Plant response rating, Barnyardgrass (0 to 100 scale, 0 is no effect, 100 is complete control)) | plant injury at 125 g/ha ([11]; Triticum aestivum, post-emergence, 240 h, 125 g ai/ha, read-out: Plant response rating, Wheat) | plant injury at 500 g/ha ([11]; Triticum aestivum, post-emergence, 240 h, 500 g ai/ha, read-out: Plant response rating, Wheat) | pest or weed control at 125 g/ha ([12]; Lolium multiflorum, post-emergence, 240 h, 125 g ai/ha, read-out: Plant response rating, Ryegrass, Italian) | pest or weed control at 500 g/ha ([12]; Lolium multiflorum, post-emergence, 240 h, 500 g ai/ha, read-out: Plant response rating, Ryegrass, Italian) | Corn plant response rating (crop injury, 0 = no effect, 100 = complete kill) at 125 g/ha (corn (Zea mays); Zea mays, post-emergence, 240 h, 125 g ai/ha)
80%: pest or weed control at 125 g/ha (kochia (Kochia scoparia) [1]; Bassia scoparia, post-emergence, 240 h, 125 g ai/ha, read-out: Plant response rating, Kochia)
40%: pest or weed control at 125 g/ha ([7]; Setaria faberi, post-emergence, 240 h, 125 g ai/ha, read-out: Plant response rating, Foxtail, Giant) | plant injury at 250 g/ha (rice (Oryza sativa); Oryza sativa, 360 h, read-out: Plant response rating, Rice (0 to 100 scale, 0 is no effect, 100 is complete control))
50: Plant response rating, Foxtail, Giant ([14]; 125 g ai/ha)
90: Plant response rating, Barnyardgrass ([13]; 500 g ai/ha) | Plant response rating, Ragweed ([15]; 125 g ai/ha) | Plant response rating, Kochia (kochia (Kochia scoparia) [17]; 500 g ai/ha)
90%: pest or weed control at 500 g/ha (kochia (Kochia scoparia) [1]; Bassia scoparia, post-emergence, 240 h, 500 g ai/ha, read-out: Plant response rating, Kochia) | pest or weed control at 500 g/ha ([2]; Echinochloa crus-galli, post-emergence, 240 h, 500 g ai/ha, read-out: Plant response rating, Barnyardgrass) | pest or weed control at 500 g/ha ([7]; Setaria faberi, post-emergence, 240 h, 500 g ai/ha, read-out: Plant response rating, Foxtail, Giant) | pest or weed control at 500 g/ha ([8]; Galium, post-emergence, 240 h, 500 g ai/ha, read-out: Plant response rating, Galium) | pest or weed control at 125 g/ha ([16]; Ambrosia artemisiifolia, post-emergence, 240 h, 125 g ai/ha, read-out: Plant response rating, Ragweed) | pest or weed control at 500 g/ha ([16]; Ambrosia artemisiifolia, post-emergence, 240 h, 500 g ai/ha, read-out: Plant response rating, Ragweed)
0: Plant response rating, Ryegrass, Italian ([5]; 125 g ai/ha) | Plant response rating, Ryegrass, Italian ([5]; 500 g ai/ha) | Plant response rating, Barnyardgrass ([13]; 125 g ai/ha)
100%: pest or weed control at 125 g/ha ([3]; Amaranthus retroflexus, post-emergence, 240 h, 125 g ai/ha, read-out: Plant response rating, Pigweed) | pest or weed control at 500 g/ha ([3]; Amaranthus retroflexus, post-emergence, 240 h, 500 g ai/ha, read-out: Plant response rating, Pigweed) | pest or weed control at 250 g/ha ([9]; Cyperus difformis, 360 h, read-out: Plant response rating, Sedge, Umbrella (0 to 100 scale, 0 is no effect, 100 is complete control))
60: Plant response rating, Kochia (kochia (Kochia scoparia) [17]; 125 g ai/ha)
50%: pest or weed control at 125 g/ha ([2]; Echinochloa crus-galli, post-emergence, 240 h, 125 g ai/ha, read-out: Plant response rating, Barnyardgrass)
98%: pest or weed control at 250 g/ha ([4]; Heteranthera limosa, 360 h, read-out: Plant response rating, Ducksalad (0 to 100 scale, 0 is no effect, 100 is complete control))
70%: pest or weed control at 125 g/ha ([8]; Galium, post-emergence, 240 h, 125 g ai/ha, read-out: Plant response rating, Galium)
20%: Corn plant response rating (crop injury, 0 = no effect, 100 = complete kill) at 500 g/ha (corn (Zea mays); Zea mays, post-emergence, 240 h, 500 g ai/ha) | pest or weed control at 125 g/ha ([18]; Alopecurus myosuroides, post-emergence, 240 h, 125 g ai/ha, read-out: Plant response rating, Blackgrass)
100: Plant response rating, Pigweed ([10]; 500 g ai/ha) | Plant response rating, Foxtail, Giant ([14]; 500 g ai/ha) | Plant response rating, Ragweed ([15]; 500 g ai/ha)
80: Plant response rating, Pigweed ([10]; 125 g ai/ha)
